The record followed here is patent US20250019401A1, “ANTIMICROBIAL PEPTIDE BOLESPLEENIN OF BOLEOPHTHALMUS PECTINIROSTRIS AND APPLICATION THEREOF” (Xiamen University, priority 2023, published 2025).

Common to all, as to assay type: cell-based
One assay concerns Acinetobacter baumannii. From the text: (§1) Bacterial strains involved in Embodiment 2 are as follows: Staphylococcus aureus, Acinetobacter baumannii, Escherichia coli, Enterococcus faecium, Enterococcus faecalis, Pseudomonas aeruginosa, Cryptococcus neoformans, Fusarium oxysporum, Aspergillus flavus, and Fusarium solani.
(§2) The bacterial strains are purchased from the China General Microbiological Culture Collection Center (CGMCC).
(§3) A specific analysis method of this embodiment is as follows:
(§4) (1) The conserved strains are coated on a nutrient broth plate, a Yeast Extract Peptone Dextrose (YPD) plate, or a potato dextrose plate and are inverted and incubated for 1-7 days.
(§5) (2) Colonies are picked from the plates, inoculated on a slant with a corresponding medium, continually incubated for 1-7 days, and washed down from the slant with corresponding medium with 10 mMol/L (mM) of sodium phosphate buffer (pH=7.4), and concentrations of suspensions of the bacteria or suspensions of the fungi are adjusted. The suspensions of the bacteria are diluted so that final concentrations are 5×10^5 CFU/mL. Mold spores of the suspensions of the fungi are counted under an optical microscope using a hemocyte counting plate, and concentrations of mold spores are adjusted to final concentrations of 5×10^4 spores/mL.
(§6) (3) Powder of the synthesized antimicrobial peptide Bolespleenin is dissolved in sterilized distillation-distillation H2O (ddH2O), filtered through a 0.22 μm filter membrane, and concentrations of the antimicrobial peptide Bolespleenin are then diluted to 3 μM, 6 μM, 12 μM, 24 μM, 48 μM, 96 μM, and 192 μM, and placed on ice for use.
(§7) (4) A blank control group, a negative control group, and an experimental group of each of the bacteria and the fungi to be tested are set on 96-well cell culture plates, and each of the blank control group, the negative control group, and the experimental group has three parallel samples.
(§8) The blank control group a: 50 μL of the antimicrobial peptide Bolespleenin with 50 μL of the corresponding medium;
(§9) The negative control group b: 50 μL of the sterilized ddH2O with 50 μL of each of the suspensions of the bacteria or the suspensions of the fungi; and
(§10) The experimental group c: 50 μL of the antimicrobial peptide Bolespleenin with 50 μL of each of the suspensions of the bacteria or the suspensions of the fungi.
(§11) (5) The 96-well cell culture plates are plated in an incubator at 28° C. and incubated for 1-2 days, and MIC results of the experimental group are observed. The experimental group is mixed by blowing, an appropriate amount of each of the suspensions of the bacteria or the suspensions of the fungi is sucked up, added dropwise onto the plate with the corresponding medium, and inverted and incubated at an appreciate temperature for 1-2 days, and MBC results are observed.

The test system of a further assay is Aspergillus flavus.
Source text: as §1, §2, §3, §4, §5, §6, §7, §8, §9, §10, §11

The subject of another assay is Cryptococcus neoformans.
Source text: as §1, §2, §3, §4, §5, §6, §7, §8, §9, §10, §11

Another assay deals with Enterococcus faecalis.
Source text: as §1, §2, §3, §4, §5, §6, §7, §8, §9, §10, §11

Another assay has as its system Enterococcus faecium.
Source text: as §1, §2, §3, §4, §5, §6, §7, §8, §9, §10, §11

The next assay deals with Escherichia coli.
Source text: as §1, §2, §3, §4, §5, §6, §7, §8, §9, §10, §11

The subject of the next assay is Fusarium oxysporum.
Source text: as §1, §2, §3, §4, §5, §6, §7, §8, §9, §10, §11

Another assay concerns Fusarium solani.
Source text: as §1, §2, §3, §4, §5, §6, §7, §8, §9, §10, §11

The next assay concerns Pseudomonas aeruginosa.
Source text: as §1, §2, §3, §4, §5, §6, §7, §8, §9, §10, §11

In a further assay the test system is Staphylococcus aureus.
Source text: as §1, §2, §3, §4, §5, §6, §7, §8, §9, §10, §11

Where a SMILES comes first, the peptide text is derived from it.

As to `CC[C@H](C)[C@H](NC(=O)[C@@H](N)CC(C)C)C(=O)NCC(=O)N[C@@H](CC(C)C)C(=O)N[C@@H](Cc1ccc(O)cc1)C(=O)N[C@@H](CC(C)C)C(=O)N[C@@H](CC(C)C)C(=O)N[C@@H](Cc1c[nH]cn1)C(=O)N[C@@H](CCCNC(=N)N)C(=O)N[C@@H](CCCNC(=N)N)C(=O)N[C@@H](CCCNC(=N)N)C(=O)N[C@@H](CCCNC(=N)N)C(=O)N[C@@H](CCCNC(=N)N)C(=O)N[C@@H](Cc1c[nH]cn1)C(=O)O` [Bolespleenin, Leu-Ile-Gly-Leu-Tyr-Leu-Leu-His-Arg-Arg-Arg-Arg-Arg-His] (H-LIGLYLLHRRRRRH-OH), the “MBC (a-b)” value is 1.5 to 3 µM in the assay on Acinetobacter baumannii; 24 to 48 µM in the assay with Aspergillus flavus; less than 1.5 µM in the assay on Cryptococcus neoformans; 3 to 6 µM against Enterococcus faecalis; 1.5 to 3 µM in the assay on Enterococcus faecium; 6 to 12 µM against Escherichia coli. Besides, the “MBC (a-b)” value in the assay on Fusarium oxysporum was in the range of 3 to 6 µM; with Fusarium solani, 3 to 6 µM; in the assay with Pseudomonas aeruginosa it was 1.5 to 3 µM; in the assay with Staphylococcus aureus, 1.5 to 3 µM. For the same compound, the “MIC (a-b)” value in the assay on Acinetobacter baumannii was 1.5 to 3 µM; in the assay with Aspergillus flavus, 6 to 12 µM; with Cryptococcus neoformans, less than 1.5 µM; in the assay on Enterococcus faecalis, 3 to 6 µM; against Enterococcus faecium, 1.5 to 3 µM; with Escherichia coli, 3 to 6 µM. Further, the “MIC (a-b)” value was 3 to 6 µM in the assay with Fusarium oxysporum, 3 to 6 µM in the assay on Fusarium solani, less than 1.5 µM in the assay with Pseudomonas aeruginosa and less than 1.5 µM in the assay with Staphylococcus aureus.
